Assays:
Human alphaherpesvirus 2 [1] = test: Concentration required to reduce HSV-2 virus induced cytopathogenicity in rabbit cell kidney culture (196 cells); type: functional, organism-based
Human alphaherpesvirus 2 [2] = test: Concentration required to reduce HSV-2 virus induced cytopathogenicity in rabbit cell kidney culture (G cells); type: functional, organism-based
Human alphaherpesvirus 2 [3] = test: Concentration required to reduce HSV-2 virus induced cytopathogenicity in rabbit cell kidney culture (Lyons cells); type: functional, organism-based
Human alphaherpesvirus 1 [4] = test: Concentration required to reduce HSV-1 virus induced cytopathogenicity in rabbit cell kidney culture (F cells); type: functional, organism-based
Human alphaherpesvirus 1 [5] = test: Concentration required to reduce HSV-1 virus induced cytopathogenicity in rabbit cell kidney culture (KOS cells); type: functional, organism-based
Human alphaherpesvirus 1 [6] = test: Concentration required to reduce HSV-1 virus induced cytopathogenicity in rabbit cell kidney culture (McIntyre cells); type: functional, organism-based
Oryctolagus cuniculus [7] = species: Oryctolagus cuniculus; test: Minimum cytotoxic concentration causing microscopically detectable alteration of normal cell morphology of rabbit kidney cells; type: functional
[8] = tested on: Vesicular stomatitis virus; test: Concentration required to reduce vesicular stomatitis virus induced cytopathogenicity in rabbit cell kidney culture; type: functional, organism-based
Oryctolagus cuniculus [9] = species: Oryctolagus cuniculus; test: Minimum cytotoxic concentration causing microscopically detectable alteration of normal cell morphology of rabbit kideny cells; type: functional; design: unit not given here

SMILES	Concentration (Human alphaherpesvirus 2 [1])	Concentration (Human alphaherpesvirus 2 [2])	Concentration (Human alphaherpesvirus 2 [3])	Concentration (Human alphaherpesvirus 1 [4])	Concentration (Human alphaherpesvirus 1 [5])	Concentration (Human alphaherpesvirus 1 [6])	MCC (Oryctolagus cuniculus [7])	Concentration [8]	MCC (Oryctolagus cuniculus [9])
O=c1[nH]c(=O)n([C@H]2C[C@H](O)[C@@H](CO)O2)cc1/C=C/Br [BRIVUDINE]	30 µg/mL	2 µg/mL	7 µg/mL	0.02 µg/mL	0.02 µg/mL	0.02 µg/mL	>400	> 400 µg/mL	–
Cc1cn(C2CC(O)C(CCl)O2)c(=O)nc1-n1cncn1 (stereo not drawn)	> 10 µg/mL	> 10 µg/mL	> 10 µg/mL	> 10 µg/mL	> 10 µg/mL	> 10 µg/mL	–	> 10 µg/mL	>10
Nc1nc(=O)n([C@H]2C[C@H](O)[C@@H](CO)O2)cc1/C=C/Br	> 400 µg/mL	20 µg/mL	> 400 µg/mL	0.2 µg/mL	0.1 µg/mL	0.2 µg/mL	–	> 400 µg/mL	>400
CC(=O)OC[C@H]1O[C@@H](n2cc(/C=C/Br)c(-n3cncn3)nc2=O)C[C@@H]1OC(C)=O	20 µg/mL	20 µg/mL	20 µg/mL	0.2 µg/mL	0.1 µg/mL	0.07 µg/mL	–	> 200 µg/mL	–
CC(=O)OC[C@H]1O[C@@H](n2cc(/C=C/Br)c(=O)[nH]c2=O)C[C@@H]1OC(C)=O	100 µg/mL	20 µg/mL	40 µg/mL	0.1 µg/mL	0.1 µg/mL	0.2 µg/mL	–	> 300 µg/mL	>300
O=c1nc(-n2cncn2)c(/C=C/Br)cn1[C@H]1C[C@H](O)[C@@H](CO)O1	> 200 µg/mL	20 µg/mL	70 µg/mL	0.07 µg/mL	0.07 µg/mL	0.1 µg/mL	–	> 200 µg/mL	–
O=c1nc(-n2cncn2)c(/C=C/Br)cn1C1CC(O)C(CCl)O1 (stereo not drawn)	> 100 µg/mL	> 100 µg/mL	> 100 µg/mL	> 100 µg/mL	70 µg/mL	> 100 µg/mL	–	> 100 µg/mL	>100
CC(=O)OC[C@H]1O[C@@H](n2cc(C)c(-n3cncn3)nc2=O)C[C@@H]1OC(C)=O	> 40 µg/mL	> 40 µg/mL	> 40 µg/mL	> 40 µg/mL	> 40 µg/mL	> 40 µg/mL	–	> 40 µg/mL	–
Cc1cn([C@H]2C[C@H](O)[C@@H](CO)O2)c(=O)nc1-n1cncn1	20 µg/mL	20 µg/mL	20 µg/mL	> 40 µg/mL	> 40 µg/mL	20 µg/mL	–	> 40 µg/mL	–

From ChEMBL document CHEMBL1123958, “Synthesis and antiviral properties of (E)-5-(2-bromovinyl)-2'-deoxycytidine-related compounds” (J Med Chem, 1988)
